Test results as given in patent publication US10987317B2, “Inhibition of glutaminase C” (Cornell University, priority 2009, dated 2021).
“Also recorded” adds a separate entry of the source.

Columns and labels:
normal NIH 3T3 cells = test: Growth and morphology of control cells; assay type: cell-based; conditions: 10% calf serum; 5-10 μM
Description: FIGS. 1A-E illustrate that the small molecule 968 inhibiting cellular transformation. […] Cells were fixed and stained with crystal violet for counting of foci. Right: 968 was serially diluted (10, 5, 2.5, and 1.25 μM) and evaluated for its ability to inhibit focus formation. […] After 6 days, the cells are counted. 100% represents the number of Dbl-transformed cells counted in the absence of 968 (27.5×10^4 cells). Data represent the average of 3 experiments (±s.d.). […] At the indicated times, the cells are counted. Data represent the average of 3 experiments (±s.d.).

[1] = tested on: GA activity in Dbl- and Cdc42(F28L)-expressing NIH 3T3 cells; test: GA activity in mitochondrial fractions of transformed fibroblasts; assay type: cell-based; conditions: 10 μM
Description: 100%=620 moles of glutamine hydrolyzed per minute per mole of enzyme. Data represent the average of 3 experiments (±s.d.). […] Following precipitation of the beads and re-suspension, the samples are analyzed by Western blotting with anti-V5 antibody. […] Data represent the average of 3 experiments (±s.d.). […] Data represent the average of 3 experiments (±s.d.). […] Data represent the average of 3 experiments (±s.d.). FIG. 3E NIH 3T3 cells transiently expressing Dbl are assayed for focus formation in the presence of 10 μM 968 alone or together with […] dimethyl α-ketoglutarate. […] 100%=680 nM glutamine hydrolyzed per minute per 10^5 cells. Data are the average of 3 experiments (=s.d.). […] 100%=750 nM glutamine hydrolyzed per minute per 10^5 cells. Data represent the average of 3 experiments (±s.d.).
FIGS. 4A-E illustrate the role of glutaminase C activity in cellular transformation. […] Data represent the average of 3 experiments (±s.d.). […] Data represent the average of 3 experiments (±s.d.). […] 100% represents the activity measured in untreated Dbl-transformed cells. The data represent the average of 2 experiments. […] 100% represents the activity measured in untreated SKBR3 cells. The data represent the average of 2 experiments. […] Data represent the average of 3 experiments (±s.d.).
FIGS. 11A-E illustrate the effects of different treatments on GA activity. […] The addition of Pi stimulated the GA activity in control 3T3 cells, Dbl-expressing cells, and Cdc42(F28L)-expressing cells by ˜6-fold, 2-fold, and 3-fold, respectively. 100% represents the Pi-stimulated activity measured for Dbl-transformed cells that are not treated with 968. Data is the average of 3 experiments (±s.d.). […] The addition of Pi stimulated the GA activity of HMECs, MDA-MB231 cells, and SKBR3 cells by ˜5-fold, 2-fold, and 1.4-fold, respectively. 100% represents the Pi-stimulated activity for SKBR3 cells that were not treated with 968. Data are the average of 3 experiments (±s.d.). […] Mitochondrial fractions are prepared from equal numbers of cells and assayed for GA activity in the presence or absence of 133 mM Pi. The data are plotted as the percentage of GA activity measured for untreated SKBR3 cells and represent the average of 2 experiments. […] 100% represents the P1-stimulated activity measured for untreateDbl-transformed cells. The data represent the average of 2 experiments. […] 100% represents the Pi-stimulated activity for untreated SKBR3 cells. The data represent the average of 2 experiments.
Mitochondrial preparations were obtained using the mitochondria isolation kit from QIAGEN (Cat #37612). A suspension containing 2×10^7 cells was transferred into a 50 ml conical tube and centrifuged at 500×g for 10 minutes at 4° C. […]

## CN(C)c1ccc(C2Nc3ccc4ccccc4c3C3=C2C(=O)CC(C)(C)C3)cc1Br (stereo not drawn) [Compound 968, 5-[3-bromo-4-(dimethylamino)phenyl]-2,2-dimethyl-2,3,5,6-tetrahydrobenzo[a]]
Normal NIH 3T3 cells
  effect on growth or morphology of normal NIH 3T3 cells: no significant effects; also recorded: inability
[1]
  GA activity of transformed cells: inhibits
[1]; 133 mM Pi
  sensitivity of basal versus phosphate-stimulated GA activity: basal activity being more sensitive
